From patent US20060025401A1, “Use of inhibitors of the sodium-dependent chloride/bicarbonate exchanger for the treatment of thrombotic and inflammatory disorders” (Sanofi-Aventis Deutschland GmbH, priority 2002, published 2006)

Columns and labels:
[1] = tested on: human umbilical vein endothelial cells (HUVEC); test: Measurement of vWF release after reperfusion (ELISA of cell supernatant); assay type: cell-based
Method: All the examples were carried out with human umbilical vein endothelial cells (HUVEC). These comprise primary cell cultures isolated from the umbilical vein.
For the following examples, the cells were cultivated either on gelatinized glass plates (measurement of the intracellular proton concentration) or on cell culture plates (12-well culture plates, Falcon, N.J., USA; measurement of vWF release) after the first passage.
The measurements were carried out in a Heraeus Heracell incubator. This made it possible to […] the umbilical vein endothelial cells under controlled physiological conditions (temperature 37° C., relative humidity 100%, pCO2 constant at 5%) and to ensure rapid change of different cell culture media. […]
The samples taken from the supernatant were used to determine the vWF concentration. […] The vWF content of standard human plasma (Behring, Marburg) is calculated using an international standard (2nd International Standard 87/718; National Institute for Biological Standards and Control, London).
Table 4: vWF secretion was measured during a 10-minute reperfusion time with stimulation. […]

[2] = tested on: human umbilical vein endothelial cells (HUVEC); test: Measurement of the intracellular pH (BCECF fluorescence) during reperfusion simulation after acidosis; assay type: cell-based; conditions: reperfusion buffer pH 7.4 with 10 μM histamine after 60 minutes of acidosis (pHex 6.4); inhibitors each 10 μM; found from first 30 seconds after reperfusion; Mean ± SEM; control buffer 18 ± 1.5
Method: All the examples were carried out with human umbilical vein endothelial cells (HUVEC). These comprise primary cell cultures isolated from the umbilical vein. For the following examples, the cells were cultivated either on gelatinized glass plates (measurement of the intracellular proton concentration) or on cell culture plates (12-well culture plates, Falcon, N.J., USA; measurement of vWF release) after the first passage. To measure the intracellular proton concentration (pHi), the HUVECs were loaded with the pH-sensitive fluorescent dye BCECF-AM (2′,7′-bis(carboxyethyl)-5(6)-carboxyfluorescein). A Deltascan spectrofluorometer (PTI, Hamburg) was employed for the subsequent fluorescence measurement. This measuring system consists essentially of a UV light source, a monochromator, a photon detector and the Felix and Oscar software packages (PTI, Hamburg) for controlling the system via a computer. After alternate excitation with the wavelengths 439.5 nm (pH-independent) and 490 nm (pH-sensitive), the ratio of the measured emissions of the BCECF (ratio) was reported and the pH was found after a calibration. The measuring cell is designed so that the parameters of temperature and carbon dioxide partial pressure in the system are controlled during continuous perfusion. […]

## COCCOc1nc(-c2ccccc2)n(Cc2ccc(-c3ccccc3S(=O)(=O)NC#N)cc2S(C)(=O)=O)c1C=O [Compound 1, 4′-[5-formyl-4-(2-methoxyethoxy)-2-phenyl-1-imidazolylmethyl]-3′-methylsulfonylbiphenyl-2-sulfonylcyanamide]
[1]; 10 μM compound, 10-minute reperfusion time with stimulation (10 μM histamine), preacidotic cells without inhibitor 193 ± 8.0%
  vWF secretion during reperfusion of preacidotic cells, relative to control cells (vWFco = 100%): 157 ± 18%
[1]; blockade of the NCBE transporter, 10 μM, reperfusion of preacidotic cells
  reduction of the increased vWF secretion during reperfusion: ~50%

## CC(C)c1ccc(C(=O)NC(=N)N)cc1S(C)(=O)=O [NHE, cariporide]
[2]
  Time to Δ PHi, max/2 (time to the half-maximum pHi change): 190 ± 2.9 s
